Measurements taken from patent US10760110B2, “Antibiotic testing and screening system” (priority 2017, dated 2020).
Where two headings read alike, the source gives them in different places.

Tests used:
[1] = test system: K. pneumoniae NVT1001 and its GyrA/ParC and ΔramR mutants; assay: Etest MIC of quinolones, GyrA/ParC mutations and AcrAB-TolC overexpression (ΔramR) (Table 10); assay type: cell-based; conditions: Klebsiella pneumoniae
Description: DNA fragments of the entire gyrA and parC sequences along with their flanking regions were amplified from K. pneumoniae strain NVT1001 using PCR with specific primer pairs and then cloned into the plasmid pUT-KB. The QuikChange site-directed mutagenesis kit (Stratagene) was used to generate mutations in the gyrA and parC genes in the plasmid using the methods described by the manufacturer. For homologous recombination, plasmids containing mutations in the gyrA or parC gene were transformed into E. coli S17-1 λpir^23 via electroporation and mobilized into K. pneumoniae strain NVT1001 via conjugation. Single-crossover strains were selected from BIND plates supplemented with kanamycin (50 mg/L), as the growth of non-K. pneumoniae contaminants is suppressed on BIND plates.^24 After the kanamycin-resistant transconjugants were selected, the insertion of plasmids was verified via PCR. After incubation in 20 mL BHI broth for 6 hours at 37° C. in the absence of kanamycin, the fully grown cultures were spread onto LB agar plates supplemented with 10% sucrose. After the double crossover occurred, the sucrose-resistant and kanamycin-susceptible colonies were selected, and the gene mutations were confirmed via PCR.
(§1) The MICs of antibiotics were determined using the Etest (Biodisk AB, Sweden) according to the manufacturer's instructions. The MICs from the Etest, which fall between standard two-fold dilutions, were rounded up to the next highest two-fold value. The MICs of ceftazidime and cefotaxime against K. pneumoniae NVT1001 harbouring the pACYC177 plasmid with blaOXA-48 were further determined using a broth microdilution test according to the recommendations of the CLSI,^25 and the results were interpreted according to the breakpoints established by the CLSI in 2017.^25 Meanwhile, due to the lack of CLSI breakpoints in 2016 and 2017, the results for cephalothin were interpreted according to the breakpoints established by the CLSI in 2015,^26 and the results for moxifloxacin were interpreted according to the breakpoints established by the EUCAST in 2017.^27

[2] = test system: A. baumannii KW1 and its GyrA/ParC mutants; assay: Etest MIC of quinolones, GyrA and/or ParC mutations (Table 17); assay type: cell-based; conditions: Acinetobacter baumannii
Description: DNA fragments of the entire adeR, adeS, gyrA and parC along with their flanking regions were amplified from A. baumannii KW1 using PCR with specific primer pairs and then cloned into plasmid pUT-KB. The QuikChange site-directed mutagenesis kit (Stratagene) was used to generate mutations in the adeR, adeS, gyrA and parC genes in the plasmids using the methods described by the manufacturer. For homologous recombination, plasmids containing mutations in the adeR, adeS, gyrA or parC gene were transformed into E. coli S17-1 λpir^23 via electroporation and mobilized into A. baumannii KW1 via conjugation. Single-crossover strains were selected from Luria-Bertani (LB) plates supplemented with cefotaxime (1 μg/ml) and kanamycin ([…]), as the growth of non-A. baumannii contaminants is suppressed by cefotaxime (1 μg/ml). The kanamycin-resistant transconjugants were selected and the insertion of plasmids was verified via PCR. After incubation in 20 ml brain heart infusion (BHI) broth for 6 hours in the absence of kanamycin at 37° C., the fully grown cultures were spread onto LB plates supplemented with 10% sucrose. After the double crossover occurred, the sucrose-resistant and kanamycin-susceptible colonies were selected, and the gene mutations were confirmed via PCR.
as §1

SMILES | MIC ([1]; D87N mutant (GyrA D87N)) | MIC ([1]; D87N/S80I mutant) | MIC ([1]; NVT1001, read-out: MIC) | MIC ([1]; S80I mutant (ParC S80I)) | MIC ([1]; S83F mutant (GyrA S83F)) | MIC ([1]; S83F/D87N mutant) | MIC ([1]; S83F/D87N/S80I mutant) | MIC ([1]; S83F/S80I mutant) | MIC ([1]; S83I mutant (GyrA S83I)) | MIC ([1]; S83I/D87N mutant) | MIC ([1]; S83I/D87N/S80I mutant) | MIC ([1]; S83I/S80I mutant) | MIC ([1]; S83L mutant (GyrA S83L)) | MIC ([1]; S83L/D87N mutant) | MIC ([1]; S83L/D87N/S80I mutant) | MIC ([1]; S83L/S80I mutant) | MIC ([1]; S83Y mutant (GyrA S83Y)) | MIC ([1]; S83Y/D87N mutant) | MIC ([1]; S83Y/D87N/S80I mutant) | MIC ([1]; S83Y/S80I mutant) | further results
CCn1cc(C(=O)O)c(=O)c2cc(F)c(N3CCNCC3)cc21 [Norfloxacin, norfloxacin] | 2 µg/mL | 2 µg/mL | 0.25 µg/mL | 0.25 µg/mL | 2 µg/mL | 2 µg/mL | 32 µg/mL | 8 µg/mL | 2 µg/mL | 2 µg/mL | 64 µg/mL | 16 µg/mL | 2 µg/mL | 2 µg/mL | 64 µg/mL | 8 µg/mL | 2 µg/mL | 2 µg/mL | 32 µg/mL | 8 µg/mL | MIC ([1]; ΔramR mutant): 2 µg/mL; MIC ([1]; ΔramR/S83I mutant): 8 µg/mL; MIC ([1]; ΔramR/S83I/D87N/S80I mutant): > 256 µg/mL; MIC ([1]; ΔramR/S83I/S801 mutant): 128 µg/mL; MIC ([2]; E84K mutant): 4 µg/mL; MIC ([2]; G78C mutant): 4 µg/mL; MIC ([2]; KW1, read-out: MIC): 4 µg/mL; MIC ([2]; S80L mutant): 4 µg/mL; MIC ([2]; S80W mutant): 6 µg/mL; MIC ([2]; S80Y mutant): 4 µg/mL; MIC ([2]; S83L mutant): 24 µg/mL; MIC ([2]; S83L/E84K mutant): > 256 µg/mL; MIC ([2]; S83L/G78C mutant): > 256 µg/mL; MIC ([2]; S83L/S80L mutant): > 256 µg/mL; MIC ([2]; S83L/S80W mutant): > 256 µg/mL; MIC ([2]; S83L/S80Y mutant): > 256 µg/mL
CC1COc2c(N3CCN(C)CC3)c(F)cc3c(=O)c(C(=O)O)cn1c23 (stereo not drawn) [Ofloxacin, ofloxacin] | 1 µg/mL | 1 µg/mL | 0.25 µg/mL | 0.25 µg/mL | 2 µg/mL | 2 µg/mL | 16 µg/mL | 2 µg/mL | 2 µg/mL | 2 µg/mL | 32 µg/mL | 4 µg/mL | 2 µg/mL | 2 µg/mL | 32 µg/mL | 4 µg/mL | 2 µg/mL | 2 µg/mL | 16 µg/mL | 2 µg/mL | MIC ([1]; ΔramR mutant): 2 µg/mL; MIC ([1]; ΔramR/S83I mutant): > 32 µg/mL; MIC ([1]; ΔramR/S83I/D87N/S80I mutant): > 32 µg/mL; MIC ([1]; ΔramR/S83I/S801 mutant): > 32 µg/mL; MIC ([2]; E84K mutant): 0.38 µg/mL; MIC ([2]; G78C mutant): 0.38 µg/mL; MIC ([2]; KW1, read-out: MIC): 0.38 µg/mL; MIC ([2]; S80L mutant): 0.5 µg/mL; MIC ([2]; S80W mutant): 0.5 µg/mL; MIC ([2]; S80Y mutant): 0.38 µg/mL; MIC ([2]; S83L mutant): 6 µg/mL; MIC ([2]; S83L/E84K mutant): > 32 µg/mL; MIC ([2]; S83L/G78C mutant): 32 µg/mL; MIC ([2]; S83L/S80L mutant): > 32 µg/mL; MIC ([2]; S83L/S80W mutant): > 32 µg/mL; MIC ([2]; S83L/S80Y mutant): > 32 µg/mL
COc1c(N2C[C@@H]3CCCN[C@@H]3C2)c(F)cc2c(=O)c(C(=O)O)cn(C3CC3)c12 [Moxifloxacin, moxifloxacin] | 0.5 µg/mL | 1 µg/mL | 0.125 µg/mL | 0.25 µg/mL | 0.5 µg/mL | 0.5 µg/mL | 32 µg/mL | 1 µg/mL | 1 µg/mL | 1 µg/mL | > 32 µg/mL | 8 µg/mL | 0.5 µg/mL | 0.5 µg/mL | 32 µg/mL | 2 µg/mL | 0.5 µg/mL | 0.5 µg/mL | 32 µg/mL | 1 µg/mL | MIC ([1]; ΔramR mutant): 1 µg/mL; MIC ([1]; ΔramR/S83I mutant): 8 µg/mL; MIC ([1]; ΔramR/S83I/D87N/S80I mutant): > 32 µg/mL; MIC ([1]; ΔramR/S83I/S801 mutant): > 32 µg/mL; MIC ([2]; E84K mutant): 0.19 µg/mL; MIC ([2]; G78C mutant): 0.19 µg/mL; MIC ([2]; KW1, read-out: MIC): 0.19 µg/mL; MIC ([2]; S80L mutant): 0.25 µg/mL; MIC ([2]; S80W mutant): 0.19 µg/mL; MIC ([2]; S80Y mutant): 0.19 µg/mL; MIC ([2]; S83L mutant): 0.75 µg/mL; MIC ([2]; S83L/E84K mutant): 6 µg/mL; MIC ([2]; S83L/G78C mutant): 4 µg/mL; MIC ([2]; S83L/S80L mutant): 6 µg/mL; MIC ([2]; S83L/S80W mutant): 8 µg/mL; MIC ([2]; S83L/S80Y mutant): 6 µg/mL
CCn1cc(C(=O)O)c(=O)c2ccc(C)nc21 [Nalidixic acid, nalidixic acid] | > 256 µg/mL | > 256 µg/mL | 4 µg/mL | 8 µg/mL | > 256 µg/mL | > 256 µg/mL | > 256 µg/mL | > 256 µg/mL | > 256 µg/mL | > 256 µg/mL | > 256 µg/mL | > 256 µg/mL | > 256 µg/mL | > 256 µg/mL | > 256 µg/mL | > 256 µg/mL | > 256 µg/mL | > 256 µg/mL | > 256 µg/mL | > 256 µg/mL | MIC ([1]; ΔramR mutant): 32 µg/mL; MIC ([1]; ΔramR/S83I mutant): > 256 µg/mL; MIC ([1]; ΔramR/S83I/D87N/S80I mutant): > 256 µg/mL; MIC ([1]; ΔramR/S83I/S801 mutant): > 256 µg/mL; MIC ([2]; E84K mutant): 12 µg/mL; MIC ([2]; G78C mutant): 12 µg/mL; MIC ([2]; KW1, read-out: MIC): 12 µg/mL; MIC ([2]; S80L mutant): 12 µg/mL; MIC ([2]; S80W mutant): 12 µg/mL; MIC ([2]; S80Y mutant): 12 µg/mL; MIC ([2]; S83L mutant): > 256 µg/mL; MIC ([2]; S83L/E84K mutant): > 256 µg/mL; MIC ([2]; S83L/G78C mutant): > 256 µg/mL; MIC ([2]; S83L/S80L mutant): > 256 µg/mL; MIC ([2]; S83L/S80W mutant): > 256 µg/mL; MIC ([2]; S83L/S80Y mutant): > 256 µg/mL
